US20240366616A1, “SOLUBLE PHARMACEUTICAL COMPOSITIONS COMPRISING SALTS OF DISUBSTITUTED 1, 2, 4-TRIAZINE COMPOUND” (Mineralys Therapeutics, Inc., priority 2021, published 2024)
Each block holds one molecule with its values, some of them ahead of it.

Tests used:
Assay type in all cases: physicochemical
[1] = Water solubility of API free base
[2] = Powder x-ray diffraction of ALDSI stored with a metal salt (croscarmellose Na); conditions: 3 days storage with croscarmellose Na, 60° C./75% RH
Procedure: FIG. 1: Powder x-ray diffraction peaks detected from MLS-101 after 3 days of storage with a metal salt (croscarmellose Na) (storage conditions: 60° C./75% RH).
ALDSI-derived peaks were detected after 3 days of storage of ALDSI with a metal salt (croscarmellose Na). (storage conditions: 60° C./75% RH)

[3] = Stability test of 10% API capsules: purity test (related substances); conditions: Initial
Procedure: Metal salt-free excipients were selected.
D-Mannitol and talc were mixed and sieved. The API was added to the sieved mixture, blended, sieved, and filled in HPMC capsules.

[4] = Study II of tablets: purity test (related substances) after storage; conditions: Initial
Description: API granules, a disintegrant, and lubricants were mixed in a polyethylene bag. After confirming pressure dependency, the mixture was subjected to sequential tableting (900 kilogram of force, i.e. about 8826 Newtons).

[5] = Dissolution test of ALDSI (JP Paddle Method, JP Second Fluid) and XRPD after storage or processing of API alone
Procedure: Storage conditions: 25° C./60% RH, 40° C./75% RH, and 60° C./75% RH (relative humidity) in an open container
Sampling time points: 3 days and 1 week
Test method: JP Apparatus for Paddle Method (Apparatus 2)
Revolutions: 50 rpm for 0-30 min, and 250 rpm for 30 min.
Dissolution medium: JP Second Fluid for dissolution test (A mixture of phosphate buffer solution (pH 6.8) and water (1:1), as described in the Japanese Pharmacopoeia.)

- Solubility in water [1]: poorly soluble in water
Compound: CC(=O)N[C@H]1CC[C@H](NC(=O)CN2CCN(c3nncc(-c4ccc(C)cc4)n3)CC2)CC1 [API free base]

- Individual related substances RRT 0.95 [3]: 0.10%
- Individual related substances RRT 0.96 [3]: 0.04%
- Individual related substances RRT 0.98 [3]: 0.11%
- Individual related substances RRT 1.18 [3]: 0.47%
- Individual related substances RRT 1.19 [3]: 0.03%
- Total related substances [3]: 0.75%
- Individual related substances RRT 0.81 [4]: 0.11%
- Individual related substances RRT 0.85 [4]: 0.02%
- Individual related substances RRT 1.09 [4]: 0.02%
- Individual related substances RRT 1.13 [4]: 0.02%
- Individual related substances RRT 1.35 [4]: 0.02%
- Individual related substances RRT 1.43 [4]: 0.02%
- Individual related substances RRT 1.69 [4]: 0.02%
- Total related substances [4]: 0.23%
- Dissolution changes over time ([5]; compressed API alone stored at 60° C./75% RH for 3 days or 1 week): no changes in dissolution over time
- Dissolution changes over time ([5]; ground API alone stored at 60° C./75% RH for 3 days or 1 week): no changes in dissolution over time
Compound: CC(=O)N[C@H]1CC[C@H](NC(=O)CN2CCN(c3nncc(-c4ccc(C)cc4)n3)CC2)CC1 [ALDSI]
- Propensity toward disproportionation in the presence of a metal salt [2]: high propensity toward disproportionation
- Dissolution differences among samples ([5]; API alone compressed at 300, 600, and 900 kilograms of force): no differences in dissolution among samples
- Dissolution differences among samples ([5]; API alone ground for 1, 3, 20, and 30 min): no differences in dissolution among samples
- Dissolution differences among samples ([5]; API alone kneaded with large, middle, and small amounts of water): no differences in dissolution among samples
- Dissolution delay / new XRPD peaks after storage ([5]; API alone, 25° C./60% RH, 40° C./75% RH, 60° C./75% RH open container, 3 days and 1 week): no delay of dissolution or appearance of new peaks on XRPD
